Results on 6 cell lines are retold here after the supplement of paper PMC10307832.

Holding throughout (assay): relative viability (nuclei count vs DMSO), 5 days (fraction); higher = more cells survive
Compound in experiment [1]: CC1=CC=C(C=C1)C(=O)CN2C3=C(CCCC3)SC2=N [Pifithrin_alpha] + Cc1nc(Nc2ncc(C(=O)Nc3c(C)cccc3Cl)s2)cc(N2CCN(CCO)CC2)n1 [Dasatinib] (partner 0.075 µM)
The method, boiled down: (§1)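 Nuclei were stained with Hoechst during a one-step fixation (final 0.05% Triton X-100, 1% formaldehyde, 1 ug/ml Hoechst) carried out 5 days after dosing, then counted on 4× images. The cells, lung cancer lines in 1536-well plates, had been dosed by pin tool the day after seeding with one drug alone or a fixed anchor-drug dose plus five library-drug doses (not always all listed) in √10 steps. Relative viability is the nuclei count in treated wells divided by that in vehicle wells, and each value is the median of duplicate plates.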

Compound in the experiment “Axitinib + Palbociclib”: CNC(=O)c1ccccc1Sc1ccc2c(/C=C/c3ccccn3)n[nH]c2c1 [Axitinib] + CC(=O)c1c(C)c2cnc(Nc3ccc(N4CCNCC4)cn3)nc2n(C2CCCC2)c1=O [Palbociclib] (partner 0.5 µM)
The method, boiled down: as §1

Compound in the experiment “Axitinib + Navitoclax”: CNC(=O)c1ccccc1Sc1ccc2c(/C=C/c3ccccn3)n[nH]c2c1 [Axitinib] + CC1(C)CCC(c2ccc(Cl)cc2)=C(CN2CCN(c3ccc(C(=O)NS(=O)(=O)c4ccc(N[C@H](CCN5CCOCC5)CSc5ccccc5)c(S(=O)(=O)C(F)(F)F)c4)cc3)CC2)C1 [Navitoclax] (partner 0.5 µM)
The method, boiled down: as §1

Compound in the experiment “Axitinib + Pemetrexed”: CNC(=O)c1ccccc1Sc1ccc2c(/C=C/c3ccccn3)n[nH]c2c1 [Axitinib] + Nc1nc2[nH]cc(CCc3ccc(C(=O)N[C@@H](CCC(=O)O)C(=O)O)cc3)c2c(=O)[nH]1 [Pemetrexed] (partner 0.2 µM)
A digest of the protocol:
as §1

For the cell line PC-14, the relative viability in experiment [1] (first compound 1 µM) was determined as 0.207; in experiment [1] (first compound 3.162 µM), 0.166; in experiment [1] (first compound 10 µM) it was 0.134; in experiment [1] (first compound 31.62 µM) it was 0.0654; in experiment [1] (first compound 100 µM), 0.0425; with Axitinib + Palbociclib (first compound 0.005 µM), 0.498. For the same cell line, the relative viability with Axitinib + Palbociclib (first compound 0.01581 µM) was found to be 0.427; with Axitinib + Palbociclib (first compound 0.05 µM), 0.511; with Axitinib + Palbociclib (first compound 0.1581 µM), 0.563; in the experiment with Axitinib + Palbociclib (first compound 0.5 µM) it was 0.71; in the experiment with Axitinib + Navitoclax (first compound 0.005 µM), 1.09; with Axitinib + Navitoclax (first compound 0.01581 µM), 1.01. The relative viability stood at 1.05 with Axitinib + Navitoclax (first compound 0.05 µM); 0.967 with Axitinib + Navitoclax (first compound 0.1581 µM); 1.05 with Axitinib + Navitoclax (first compound 0.5 µM); 0.135 with Axitinib + Pemetrexed (first compound 0.005 µM); 0.114 with Axitinib + Pemetrexed (first compound 0.01581 µM); 0.158 with Axitinib + Pemetrexed (first compound 0.05 µM). Also, the relative viability with Axitinib + Pemetrexed (first compound 0.1581 µM) is 0.137; in the experiment with Axitinib + Pemetrexed (first compound 0.5 µM), 0.142.

For RERF-LC-KJ, the relative viability in experiment [1] (first compound 1 µM) came out at 0.721; in experiment [1] (first compound 3.162 µM) it was 0.633; in experiment [1] (first compound 10 µM), 0.737; in experiment [1] (first compound 31.62 µM), 0.411; in experiment [1] (first compound 100 µM) it was 0.521; with Axitinib + Palbociclib (first compound 0.005 µM) it was 1.09. Also, the relative viability turned out to be 1.16 with Axitinib + Palbociclib (first compound 0.01581 µM); 1.03 with Axitinib + Palbociclib (first compound 0.05 µM); 1.14 with Axitinib + Palbociclib (first compound 0.1581 µM); 1.11 with Axitinib + Palbociclib (first compound 0.5 µM); 1 in the experiment with Axitinib + Navitoclax (first compound 0.005 µM); 0.942 in the experiment with Axitinib + Navitoclax (first compound 0.01581 µM). Besides, the relative viability with Axitinib + Navitoclax (first compound 0.05 µM) was determined as 0.973; with Axitinib + Navitoclax (first compound 0.1581 µM), 1.02; in the experiment with Axitinib + Navitoclax (first compound 0.5 µM), 1.28; with Axitinib + Pemetrexed (first compound 0.005 µM), 0.435; with Axitinib + Pemetrexed (first compound 0.01581 µM) it was 0.443; in the experiment with Axitinib + Pemetrexed (first compound 0.05 µM), 0.485. The relative viability with Axitinib + Pemetrexed (first compound 0.1581 µM) amounted to 0.491; in the experiment with Axitinib + Pemetrexed (first compound 0.5 µM), 0.502.

Regarding SK-LU-1, the relative viability was 0.175 in experiment [1] (first compound 1 µM); 0.193 in experiment [1] (first compound 3.162 µM); 0.181 in experiment [1] (first compound 10 µM); 0.168 in experiment [1] (first compound 100 µM); 0.433 with Axitinib + Palbociclib (first compound 0.005 µM); 0.406 in the experiment with Axitinib + Palbociclib (first compound 0.01581 µM). Further, the relative viability with Axitinib + Palbociclib (first compound 0.05 µM) amounted to 0.38; in the experiment with Axitinib + Palbociclib (first compound 0.1581 µM), 0.368; with Axitinib + Palbociclib (first compound 0.5 µM), 0.355; with Axitinib + Navitoclax (first compound 0.005 µM), 0.955; with Axitinib + Navitoclax (first compound 0.01581 µM), 1.2; in the experiment with Axitinib + Navitoclax (first compound 0.05 µM), 0.932. Besides, the relative viability with Axitinib + Navitoclax (first compound 0.1581 µM) amounted to 0.812; in the experiment with Axitinib + Navitoclax (first compound 0.5 µM), 1.13; in the experiment with Axitinib + Pemetrexed (first compound 0.005 µM) it was 1.01; with Axitinib + Pemetrexed (first compound 0.01581 µM) it was 1; with Axitinib + Pemetrexed (first compound 0.05 µM) it was 1.09; in the experiment with Axitinib + Pemetrexed (first compound 0.1581 µM) it was 1.03. In addition, the relative viability with Axitinib + Pemetrexed (first compound 0.5 µM) was determined as 1.13.

On to SK-MES-1, for which the relative viability in experiment [1] (first compound 1 µM) is 0.344; in experiment [1] (first compound 3.162 µM), 0.237; in experiment [1] (first compound 10 µM), 0.264; in experiment [1] (first compound 31.62 µM), 0.228; in experiment [1] (first compound 100 µM), 0.268; with Axitinib + Palbociclib (first compound 0.005 µM), 0.309. Moreover, the relative viability in the experiment with Axitinib + Palbociclib (first compound 0.01581 µM) stood at 0.332; in the experiment with Axitinib + Palbociclib (first compound 0.05 µM), 0.347; with Axitinib + Palbociclib (first compound 0.1581 µM), 0.344; with Axitinib + Palbociclib (first compound 0.5 µM), 0.353; in the experiment with Axitinib + Navitoclax (first compound 0.005 µM), 1.32; in the experiment with Axitinib + Navitoclax (first compound 0.01581 µM), 1.2. Further, the relative viability with Axitinib + Navitoclax (first compound 0.05 µM) was 1.32; in the experiment with Axitinib + Navitoclax (first compound 0.1581 µM), 1.25; with Axitinib + Navitoclax (first compound 0.5 µM), 1.51; in the experiment with Axitinib + Pemetrexed (first compound 0.005 µM) it was 0.949; with Axitinib + Pemetrexed (first compound 0.01581 µM), 1.03; with Axitinib + Pemetrexed (first compound 0.05 µM), 1.02. Besides, the relative viability in the experiment with Axitinib + Pemetrexed (first compound 0.1581 µM) and in the experiment with Axitinib + Pemetrexed (first compound 0.5 µM) was 1.04 in each case.

As for SW 1573, the relative viability in experiment [1] (first compound 1 µM) was 0.616; in experiment [1] (first compound 3.162 µM), 0.513; in experiment [1] (first compound 10 µM), 0.602; in experiment [1] (first compound 31.62 µM) it was 0.36; in experiment [1] (first compound 100 µM), 0.577; with Axitinib + Palbociclib (first compound 0.005 µM) it was 0.36. Further, the relative viability was determined as 0.448 with Axitinib + Palbociclib (first compound 0.01581 µM); 0.395 with Axitinib + Palbociclib (first compound 0.05 µM); 0.384 in the experiment with Axitinib + Palbociclib (first compound 0.1581 µM); 0.473 with Axitinib + Palbociclib (first compound 0.5 µM); 0.914 with Axitinib + Navitoclax (first compound 0.005 µM); 1.03 with Axitinib + Navitoclax (first compound 0.01581 µM). Moreover, the relative viability in the experiment with Axitinib + Navitoclax (first compound 0.05 µM) is 1.05; with Axitinib + Navitoclax (first compound 0.1581 µM), 0.852; with Axitinib + Navitoclax (first compound 0.5 µM), 0.904; with Axitinib + Pemetrexed (first compound 0.005 µM), 0.841; in the experiment with Axitinib + Pemetrexed (first compound 0.01581 µM) it was 0.777; with Axitinib + Pemetrexed (first compound 0.05 µM), 0.928. The relative viability turned out to be 0.77 with Axitinib + Pemetrexed (first compound 0.1581 µM) and 0.816 with Axitinib + Pemetrexed (first compound 0.5 µM).

Take UMC-11: the relative viability worked out at 0.465 in experiment [1] (first compound 1 µM); 0.656 in experiment [1] (first compound 3.162 µM); 0.514 in experiment [1] (first compound 10 µM); 0.436 in experiment [1] (first compound 31.62 µM); 0.638 in experiment [1] (first compound 100 µM); 0.316 with Axitinib + Palbociclib (first compound 0.005 µM). Besides, the relative viability worked out at 0.318 with Axitinib + Palbociclib (first compound 0.01581 µM); 0.313 in the experiment with Axitinib + Palbociclib (first compound 0.05 µM); 0.302 in the experiment with Axitinib + Palbociclib (first compound 0.1581 µM); 0.311 in the experiment with Axitinib + Palbociclib (first compound 0.5 µM); 0.322 with Axitinib + Navitoclax (first compound 0.005 µM); 0.305 with Axitinib + Navitoclax (first compound 0.01581 µM). In addition, the relative viability with Axitinib + Navitoclax (first compound 0.05 µM) amounted to 0.282; in the experiment with Axitinib + Navitoclax (first compound 0.1581 µM), 0.347; in the experiment with Axitinib + Navitoclax (first compound 0.5 µM) it was 0.294; in the experiment with Axitinib + Pemetrexed (first compound 0.005 µM), 0.774; with Axitinib + Pemetrexed (first compound 0.01581 µM), 0.81; with Axitinib + Pemetrexed (first compound 0.05 µM) it was 0.77. The figures for the relative viability with Axitinib + Pemetrexed (first compound 0.1581 µM) and with Axitinib + Pemetrexed (first compound 0.5 µM) were 0.867 and 0.81, respectively.
